Results from PMC9049071 (RSC Advances, 2020).

Columns and labels:
[1] = system: endothelial human sapiens cell line EA.hy926; assay: Activity against endothelial cell line EA.hy926; format: cell-based; details: EA.hy 926, read-out: IC50 against EA.hy926
[2] = system: breast cancer cell line MCF-7; assay: Activity against breast cancer cell line MCF-7; format: cell-based; details: Homo sapiens, MCF7, read-out: IC50 against MCF-7

CCc1cc(=O)n2c(=O)/c(=C/c3ccc(-c4ccc(C)cc4)cc3)sc2n1 [Compound 15, (Z)-7-ethyl-2-((4′-methyl-[1,1′-biphenyl]-4-yl)methylene)-5H-thiazolo[3,2-a]pyrimidine-3,5(2H)-dione]
IC50 [1]: > 250 µM
IC50 [2]: > 250 µM
